In ChEMBL document CHEMBL1201862, “PubChem BioAssay data set” (2004):
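Test compounds were applied to cells in 96-well plates for 48 hours at 5 doses. GI50 is the concentration that inhibits growth by half.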 Activity calls are given as the source filed them. Rule as the data show it: active = GI50 up to about 1.1 µM and inactive = higher.

What was measured:
Assay in all cases: NCI-60 cell line screen, 48 h
DU-145 = system: DU-145
M14 = system: M14
SK-MEL-28 = system: SK-MEL-28
SF-268 = system: SF-268
SR = system: SR
SK-MEL-5 = system: SK-MEL-5
COLO 205 = system: COLO 205
786-0 = system: 786-0
U-251 = system: U-251
A549 = system: A549
SNB-19 = system: SNB-19
CCRF-CEM = system: CCRF-CEM
OVCAR-5 = system: OVCAR-5
T47D = system: T47D
SF-295 = system: SF-295
Malme-3M = system: Malme-3M
MDA-MB-435 = system: MDA-MB-435
EKVX = system: EKVX
HCT-116 = system: HCT-116
PC-3 = system: PC-3
HT-29 = system: HT-29
UACC-62 = system: UACC-62
SN12C = system: SN12C
MDA-N = system: MDA-N
RXF 393 = system: RXF 393
TK-10 = system: TK-10
LOX IMVI = system: LOX IMVI
SK-MEL-2 = system: SK-MEL-2
SNB-75 = system: SNB-75
IGROV-1 = system: IGROV-1
KM12 = system: KM12
HL-60 = system: HL-60
A498 = system: A498
MOLT-4 = system: MOLT-4
UACC-257 = system: UACC-257
MDA-MB-231 = system: MDA-MB-231
HCT-15 = system: HCT-15
NCI/ADR-RES = system: NCI/ADR-RES
Hs-578T = system: Hs-578T
NCI-H522 = system: NCI-H522
NCI-H226 = system: NCI-H226
OVCAR-4 = system: OVCAR-4
CAKI-1 = system: CAKI-1
UO-31 = system: UO-31
HCC 2998 = system: HCC 2998
OVCAR-8 = system: OVCAR-8
SK-OV-3 = system: SK-OV-3
RPMI-8226 = system: RPMI-8226
MCF7 = system: MCF7
K562 = system: K562
HOP-92 = system: HOP-92
NCI-H23 = system: NCI-H23
OVCAR-3 = system: OVCAR-3
ACHN = system: ACHN
SW-620 = system: SW-620
BT-549 = system: BT-549
HOP-62 = system: HOP-62
NCI-H460 = system: NCI-H460

## COC(=O)/C=C\C(C#N)(C#N)/N=C/c1ccc(Br)cc1
DU-145
  GI50: 12.1 µM (inactive)
M14
  GI50: 7.26 µM (inactive)
SK-MEL-28
  GI50: 15.4 µM (inactive)
SF-268
  GI50: 15.5 µM (inactive)
SR
  GI50: 5.42 µM (inactive)
SK-MEL-5
  GI50: 1.5 µM (inactive)
COLO 205
  GI50: 3.37 µM (inactive)
786-0
  GI50: 1.02 µM (active)
U-251
  GI50: 13.6 µM (inactive)
A549
  GI50: 2.77 µM (inactive)
SNB-19
  GI50: 2.74 µM (inactive)
CCRF-CEM
  GI50: 1.54 µM (inactive)
OVCAR-5
  GI50: 14.1 µM (inactive)
T47D
  GI50: 3.63 µM (inactive)
SF-295
  GI50: 18.2 µM (inactive)
Malme-3M
  GI50: 3.24 µM (inactive)
MDA-MB-435
  GI50: 7 µM (inactive)
EKVX
  GI50: 14.2 µM (inactive)
HCT-116
  GI50: 2.57 µM (inactive)
PC-3
  GI50: 13.4 µM (inactive)
HT-29
  GI50: 2.58 µM (inactive)
UACC-62
  GI50: 11.3 µM (inactive)
SN12C
  GI50: 5.42 µM (inactive)
MDA-N
  GI50: 5.71 µM (inactive)
RXF 393
  GI50: 4.92 µM (inactive)
TK-10
  GI50: 2.45 µM (inactive)
LOX IMVI
  GI50: 1.85 µM (inactive)
SK-MEL-2
  GI50: 19.3 µM (inactive)
SNB-75
  GI50: 15 µM (inactive)
IGROV-1
  GI50: 14.3 µM (inactive)
KM12
  GI50: 14.4 µM (inactive)
HL-60
  GI50: 0.0389 µM (active)
A498
  GI50: 16.2 µM (inactive)
MOLT-4
  GI50: 0.673 µM (active)
UACC-257
  GI50: 14.8 µM (inactive)
MDA-MB-231
  GI50: 4.08 µM (inactive)
HCT-15
  GI50: 2.94 µM
NCI/ADR-RES
  GI50: 20.2 µM (inactive)
Hs-578T
  GI50: 17.6 µM (inactive)
NCI-H522
  GI50: 0.489 µM (active)
NCI-H226
  GI50: 6.4 µM (inactive)
OVCAR-4
  GI50: 8.83 µM (inactive)
CAKI-1
  GI50: 2.66 µM (inactive)
UO-31
  GI50: 4.36 µM (inactive)
HCC 2998
  GI50: 16.9 µM (inactive)
OVCAR-8
  GI50: 5.47 µM (inactive)
SK-OV-3
  GI50: 18.8 µM (inactive)
RPMI-8226
  GI50: 2.38 µM (inactive)
MCF7
  GI50: 3.52 µM (inactive)
K562
  GI50: 3.4 µM (inactive)
HOP-92
  GI50: 1.99 µM (inactive)
NCI-H23
  GI50: 14.9 µM (inactive)
OVCAR-3
  GI50: 12 µM (inactive)
ACHN
  GI50: 2.97 µM (inactive)
SW-620
  GI50: 2.76 µM (inactive)
BT-549
  GI50: 11.2 µM (inactive)
HOP-62
  GI50: 16.7 µM (inactive)
NCI-H460
  GI50: 19.6 µM (inactive)
